Experimental data reported in patent US8129527B2, “Analogs of dehydrophenylahistins and their therapeutic use” (Nereus Pharmacuticals, Inc., priority 2006, dated 2012).
Where two headings read alike, the source gives them in different places.

System: HT-29 cells
Test: Additional cytotoxicity assays, resazurin (Table 3.1)
Type: cell-based, human
Settings: for EC50: Homo sapiens
Description: 10× concentrated serial dilutions of the two compounds were prepared in appropriate culture medium for final concentrations ranging from 2.0×10^−5 M to 2.0×10^−10 M. Ten μl volumes of the 10× serial dilutions were added to the test wells in triplicate and the plates returned to the incubator for 48 hours.
Following 48 hours of drug exposure 10 μl of 0.2 mg/ml resazurin (obtained from Sigma-Aldrich Chemical Co.) in Mg^2+, Ca^2+ free PBS was added to each well and the plates were returned to the incubator for 3-4 hours. […] Resazurin dye without cells was used to determine the background, which was subtracted from the data for all experimental wells. The data were analyzed using Prism software (GraphPad Software).
Additional cytotoxicity assays were performed as described above under this example, using Resazurin fluorescence as an indicator of cell viability.

[1] = HT-29, Table 3.1, read-out: EC50 (M) Mean

Row | SMILES | EC50 [1] | % cytotox Mean (Table 3.1) | EC50 (HT-29, read-out: EC50 (M) Mean)
1 | C=CC(C)(C)c1[nH]cnc1/C=C1\N=C(OC)C(Cc2ccccc2)N=C1OC (racemic) [Compound 2354, D,L-bislactim-PLH] | > 2e-05 M | 4% | 
2 | C=CC(C)(C)c1[nH]cnc1/C=C1\NC(=O)C(Cc2ccccc2)N=C1OC (racemic) [Compound 2355, D,L-monolactim-PLH] | > 2e-05 M | 13% | 
3 | C=CC(C)(C)c1[nH]cnc1/C=C1\NC(=O)[C@H](Cc2ccccc2)NC1=O [Compound 2350, (−)-(S)-Halimide, (−)-(S)-Phenylahistin, (−)-(S)-PLH, reference compound] | 3.94e-07 M | 87% | 
4 | C=CC(C)(C)c1[nH]cnc1/C=c1\[nH]c(=O)/c(=C/c2ccccc2)[nH]c1=O [Compound 2352, Dehydrophenylahistin] | 4.26e-08 M | 86% | 
5 | C=CC(C)(C)c1[nH]cnc1/C=c1\[nH]c(=O)/c(=C\c2ccc(OC)cc2)[nH]c1=O [Compound 2357] | 8.25e-06 M | 63% | 
6 | CC(C)(C)c1[nH]cnc1/C=c1\[nH]c(=O)/c(=C/c2ccccc2)[nH]c1=O [Compound 2358, t-butyl-delta-PLH] |  | 86% | 1.49e-08 M
7 | COc1cc(/C=c2\[nH]c(=O)/c(=C/c3nc[nH]c3C(C)(C)C)[nH]c2=O)cc(OC)c1OC [Compound 2362, tBu-ΔPLH-3,4,5-triOMe] |  | 78% | 8.19e-06 M
8 | COc1cc(/C=c2\[nH]c(=O)/c(=C/c3nc[nH]c3C(C)(C)C)[nH]c2=O)cc(OC)c1 [Compound 2367, tBu-delta-3,5-diOMe] | 4.54e-08 M | 87% | 
9 | COc1ccc(/C=c2\[nH]c(=O)/c(=C/c3nc[nH]c3C(C)(C)C)[nH]c2=O)c(OC)c1OC [Compound 2368, tBu-delta-PLH-2,3,4-triOMe] | 4.8e-06 M | 78% | 
10 | CC(C)(C)c1[nH]cnc1/C=c1\[nH]c(=O)/c(=C/c2cc([N+](=O)[O-])ccc2Cl)[nH]c1=O [Compound 2371, tBu-delta-PLH-2-Cl-5-NO2] | 5.34e-08 M | 86% | 
11 | CC(C)(C)c1[nH]cnc1/C=c1\[nH]c(=O)/c(=C/c2ccc3c(c2)OCO3)[nH]c1=O [Compound 2372, tBu-delta-PLH-3,4-methylene-dioxy] | 8.73e-08 M | 84% | 
12 | COc1cccc(/C=c2\[nH]c(=O)/c(=C/c3nc[nH]c3C(C)(C)C)[nH]c2=O)c1O [Compound 2373, tBu-delta-PLH-2-OH-3-OMe (o-vanillin)] | 5.36e-06 M | 79% | 
13 | COc1cccc2cc3c(=O)[nH]/c(=C\c4nc[nH]c4C(C)(C)C)c(=O)n3c12 [Compound 2374, tBu-delta-PLH-cyclized-3-MeO] | 6.92e-06 M | 58% | 
14 | Cc1ccc(/C=c2\[nH]c(=O)/c(=C/c3nc[nH]c3C(C)(C)C)[nH]c2=O)s1 [Compound 2378, tBu-delta-PLH-5-Me-2-thienyl] | 8.52e-08 M | 85% | 
15 | Cc1ccsc1/C=c1\[nH]c(=O)/c(=C/c2nc[nH]c2C(C)(C)C)[nH]c1=O [Compound 2379, tBu-delta-PLH-3-Me-2-thienyl] | 4.7e-08 M | 86% | 
16 | CC(C)(C)c1[nH]cnc1/C=c1\[nH]c(=O)/c(=C/c2cccc3c2OCO3)[nH]c1=O [Compound 2381, tBu-delta-PLH-2,3-methylendioxy] | 5.2e-07 M | 82% | 
17 | Cc1cccc(/C=c2\[nH]c(=O)/c(=C/c3nc[nH]c3C(C)(C)C)[nH]c2=O)n1 [Compound 2384, tBu-delta-PLH-3-Me-2-pyridyl] | > 2e-05 M | 37% | 
18 | Cc1[nH]cnc1/C=c1\[nH]c(=O)/c(=C/c2nc[nH]c2C(C)(C)C)[nH]c1=O [Compound 2387, tBu-delta-PLH-5-Me-4-im] | 2.35e-06 M | 84% | 
19 | CC(C)(C)c1[nH]cnc1/C=c1\[nH]c(=O)/c(=C/c2ccc(C#N)cc2)[nH]c1=O [Compound 2394, tBu-delta-PLH-p-CN] | > 2e-05 M | 14% | 
20 | COc1cc(OC)c(/C=c2\[nH]c(=O)/c(=C/c3nc[nH]c3C(C)(C)C)[nH]c2=O)c(OC)c1 [Compound 2396, tBu-delta-PLH-2,4,6-TriOMe] | > 2e-05 M | 2% | 

Row | SMILES | EC50 [1] | % cytotox Mean (Table 3.1) | EC50 (HT-29, read-out: EC50 (M) Mean)
21 | CC(C)(C)c1[nH]cnc1/C=c1\[nH]c(=O)/c(=C/c2cc(Cl)ccc2[N+](=O)[O-])[nH]c1=O [Compound 2403, tBu-delta-PLH-2-NO2-5-Cl] | 9.97e-08 M | 86% | 
22 | COc1ccc(O)c(/C=c2\[nH]c(=O)/c(=C/c3nc[nH]c3C(C)(C)C)[nH]c2=O)c1 [Compound 2405, tBu-delta-PLH-2-OH-5-OMe] | > 2e-05 M | 25% | 
23 | CC(C)(C)c1[nH]cnc1/C=c1\[nH]c(=O)/c(=C/c2cc(Br)ccc2O)[nH]c1=O [Compound 2407, tBu-delta-PLH-2-OH-5-Br] | > 2e-05 M | 13% | 
24 | COc1ccc(/C=c2\[nH]c(=O)/c(=C/c3nc[nH]c3C(C)(C)C)[nH]c2=O)cc1O [Compound 2408, tBu-delta-PLH-3-OH-4-OMe] | 7.48e-06 M | 66% | 
25 | COc1ccc(/C=c2\[nH]c(=O)/c(=C/c3nc[nH]c3C(C)(C)C)[nH]c2=O)c(O)c1 [Compound 2409, tBu-delta-PLH-2-OH-4-OMe] | > 2e-05 M | 8% | 
26 | CC(C)(C)c1[nH]cnc1/C=c1\[nH]c(=O)/c(=C/c2cc(Cl)ccc2O)[nH]c1=O [Compound 2410, tBu-delta-PLH-2-OH-5-Cl] | > 2e-05 M | 37% | 
27 | CC(C)(C)c1[nH]cnc1/C=c1\[nH]c(=O)/c(=C/c2ccc(Cl)s2)[nH]c1=O [Compound 2412, tBu-delta-PLH-5-Cl-2-thionyl] |  | 85% | 1.65e-07 M
28 | Cn1cccc1/C=c1\[nH]c(=O)/c(=C/c2nc[nH]c2C(C)(C)C)[nH]c1=O [Compound 2414, tBu-delta-PLH-N-Me-2-pyrrole] | 1.17e-07 M | 88% | 
29 | CC(C)(C)c1[nH]cnc1/C=c1\[nH]c(=O)/c(=C/c2cc(Cl)cc(Cl)c2)[nH]c1=O [Compound 2415, tBu-delta-PLH-3,5-diCl] | 9.49e-08 M | 87% | 
30 | CC(C)(C)c1ccc(O)c(/C=c2\[nH]c(=O)/c(=C/c3ccccc3)[nH]c2=O)c1 [Compound 2422, tBu-delta-PLH-2-Hydroxybenzyl] | > 2e-05 M | 14% | 
31 | CC(C)(C)c1[nH]cnc1/C=c1\[nH]c(=O)/c(=C/c2cc(Br)cs2)[nH]c1=O [Compound 2423, tBu-delta-PLH-4-Br-2-thionyl] | 1.71e-07 M | 86% | 
32 | CCc1ccc(/C=c2\[nH]c(=O)/c(=C/c3nc[nH]c3C(C)(C)C)[nH]c2=O)s1 [Compound 2424, tBu-delta-PLH-5-Et-2-thionyl] | 1.32e-07 M | 87% | 
33 | CC(C)(C)c1[nH]cnc1/C=c1\[nH]c(=O)/c(=C/c2ccc(Br)o2)[nH]c1=O [Compound 2425, tBu-delta-PLH-5-Br-2-furyl] | 3.05e-08 M | 87% | 
34 | CCc1ccc(/C=c2\[nH]c(=O)/c(=C/c3nc[nH]c3C(C)(C)C)[nH]c2=O)o1 [Compound 2426, tBu-delta-PLH-5-Et-2-furyl] | 2.42e-07 M | 86% | 
35 | CC(C)(C)c1[nH]cnc1/C=c1\[nH]c(=O)/c(=C/c2cc(I)ccc2F)[nH]c1=O [Compound 2428, tBu-delta-PLH-2-F-5-I] | 4.17e-08 M | 87% | 
36 | CSc1ccccc1/C=c1\[nH]c(=O)/c(=C/c2nc[nH]c2C(C)(C)C)[nH]c1=O [Compound 2429, tBu-delta-PLH-2-(Methylthio)] | 2.86e-08 M | 87% | 
37 | CC(C)(C)c1[nH]cnc1/C=c1\[nH]c(=O)/c(=C/c2cccc(OC(F)(F)F)c2)[nH]c1=O [Compound 2430, tBu-delta-PLH-m-OCF3] | 1.43e-08 M | 87% | 
38 | COc1ccc(F)c(/C=c2\[nH]c(=O)/c(=C/c3nc[nH]c3C(C)(C)C)[nH]c2=O)c1 [Compound 2431, tBu-delta-PLH-2-F5-OMe] | 2.03e-08 M | 88% | 
39 | COc1cc(/C=c2\[nH]c(=O)/c(=C/c3nc[nH]c3C(C)(C)C)[nH]c2=O)ccc1F [Compound 2432, tBu-delta-PLH-4-F-3-OMe] | 4.93e-07 M | 85% | 
40 | CC(C)(C)c1ccc(O)c(/C=c2\[nH]c(=O)/c(=C/c3nc[nH]c3C(C)(C)C)[nH]c2=O)c1 [Compound 2433, tBu-delta-PLH-2-OH-5-tBU] | 8.53e-06 M | 80% | 
